The record followed here is ChEMBL document CHEMBL3507680, “University of Dundee, Gates Library screen for HepG2 cell viability”.

Structures are written as SMILES.

A short description of the series: Human HepG2 cell viability assay in 384 well format. The format is toxicity, cell-based. Also noted: dose 125 nL, time 70.5 hour; cytotoxicity at 70.5 h: concentration not given beside the values. The conditions noted are these: HepG2 cells, read-out: Inhibition.
On to `Cc1cc(-c2cnc(N3CCNC(=O)C3)nc2-c2ccc(C)o2)on1`, for which the cytotoxicity at 70.5 h is -16.3%. On to `Cc1ccc(S(=O)(=O)N2CCC(Cn3cc(C(C)(C)N)nn3)CC2)s1`, for which the cytotoxicity at 70.5 h was -6.09%. Consider `Cn1ccnc1SCCNC1CCN(c2nc3ccccc3s2)CC1`, for which the cytotoxicity at 70.5 h is -1.58%.

Turning to `Cc1cc(CN2CCN(Cc3ccccc3F)CC2)no1`, the cytotoxicity at 70.5 h was determined as 6.67%. For the molecule `O=C1C[C@H]2CC[C@@H](CN1)N2c1cc(-c2ccccc2F)nc2ccnn12`, the cytotoxicity at 70.5 h is -4%. In the case of `O=C1O[C@@H]2CN(Cc3cccc(O)c3)C[C@@H]2N1CCCN1CCOCC1`, the cytotoxicity at 70.5 h is -4.83%. For the molecule `O=C(Cc1cccc(F)c1)NCCNCc1ccco1`, the cytotoxicity at 70.5 h turned out to be 19.4%. The same measure for `c1cnc(NCc2n[nH]c3c2CCN(Cc2cccnc2)C3)nc1`: -12.3%; for `CC(=O)N1CCC2(CC1)NC(=O)[C@H]1CN(Cc3cccnc3)C[C@H]12`: 18.4%; for `COCCCNc1c(-c2ccc(Cl)cc2)c(=O)c1=O`: 6.7%. As for `COc1ccc(C(C)NCc2cccs2)cc1Cn1cccn1` (centres undefined), the cytotoxicity at 70.5 h turned out to be 15.6%.

In the case of `O=C1COC2(CCN(CC3CC3)CC2)CN1c1ccccc1`, the cytotoxicity at 70.5 h was -9.15%. The same measure for `CC(C)N1CCO[C@H]2CN(C(=O)c3ccncc3)C[C@H]21`: 11.9%.

Turning to `N#Cc1cccc(C(=O)N2C[C@H](CO)C[C@H](CN3CCCC3)C2)c1`, the cytotoxicity at 70.5 h turned out to be 2.99%. As for `CCOc1nn(CC)cc1-c1nnc(SCc2cccnc2)n1C`, the cytotoxicity at 70.5 h was -5.3%. Regarding `CC(C)c1noc(-c2ccc(NCC3CCCOC3)nc2)n1` (centres undefined), the cytotoxicity at 70.5 h was -12.4%. For `CCn1nc(C)cc1C(=O)N1C[C@H]2CCC[C@@]2(COc2ccccn2)C1`, the cytotoxicity at 70.5 h was -7.77%. The same measure for `CC(C)n1nc(Cn2cccn2)c2c1CN(C1CCOC1)C2` (centres undefined): -4.66%; for `CC(C)N(C)Cc1ncn2c1CN(CC(=O)N(C)C)CCC2`: 8.76%. `O=C(CC1CC1)N1CCC(O)(CN2CCN(c3ccccc3)CC2)C1` (centres undefined): the cytotoxicity at 70.5 h was 5.49%. The same measure for `Cc1ccc(-c2cn(C3CCN(C(=O)[C@H]4CCCO4)CC3)nn2)cc1`: -5.5%; for `Cc1cccc(NCc2nn(C)c(=O)[nH]2)c1`: -11%.

Take `CN(C)c1cc(CNC(=O)c2ccccc2Cl)ccn1`: the cytotoxicity at 70.5 h stood at 1.6%. For `Cn1ccnc1-c1cn(Cc2cn3c(n2)SCC3)nn1`, the cytotoxicity at 70.5 h is -5.95%.

As to `CCn1ccnc1CN1CCCC1c1c(C)nn(C)c1OC` (centres undefined), the cytotoxicity at 70.5 h was -4.2%. As to `Cc1sc2ncc(-c3ccnc(NC4CCN(C)CC4)n3)c(=O)n2c1C`, the cytotoxicity at 70.5 h is -2.25%. With `Cc1nc(N2CCC3(CCCN(C(C)C)C3=O)C2)c2sccc2n1` (centres undefined), the cytotoxicity at 70.5 h is -13.4%. The same measure for `Cc1nnc(SCC(=O)c2cc3c(cc2Cl)NC(=O)C3)o1`: -31.5%; for `CC[C@@H](CO)NC(=O)c1coc(COc2ccc(OC)cc2)n1`: -13%. `CC(CN1CCOCC1)NC(=O)N1CCCC1` (centres undefined): the cytotoxicity at 70.5 h is -3.6%. Consider `COCc1cccc(NC(C)C(=O)N(C)Cc2cccc(F)c2)c1` (centres undefined), for which the cytotoxicity at 70.5 h is -2.97%.

As to `CC(C)c1cc(C(=O)N2C[C@H]3CC[C@@H]2CN(Cc2ccccn2)C3)no1`, the cytotoxicity at 70.5 h was -7.13%. As for `CCCOc1cc(CNC(=O)Nc2ccccn2)ccn1`, the cytotoxicity at 70.5 h was 45.7%. For the molecule `CC(C)c1noc(CN2CCN(C(=O)c3ccccc3F)CC2)n1`, the cytotoxicity at 70.5 h was -18.6%. For `Cc1cccc(C(=O)N2CCn3c(CN4CCN(C)CC4)cnc3C2)n1`, the cytotoxicity at 70.5 h is -7.95%. Take `COCCN(C)CCN1CC2(CCN(C3CCOCC3)CC2)OC1=O`: the cytotoxicity at 70.5 h came out at 20.5%.

`CC(C)N(CC(N)=O)Cc1c(Cl)ccc2cccnc12`: the cytotoxicity at 70.5 h is -8.03%.

Take `COc1ccc2c(c1)C(NCCc1ncc(C)s1)CCCO2` (centres undefined): the cytotoxicity at 70.5 h was -7.84%. The same measure for `COc1ccc(C2CCCN2c2cnccn2)c(OC)c1` (centres undefined): -2.67%; for `Cc1nc2c(c(=O)n1C)CCN(C(=O)Cn1cccc1)CC2`: -4.24%; for `CN(CCNC(=O)Nc1nccs1)Cc1ccc(F)cc1`: -13.1%. `CC(=O)Nc1nc(C(=O)NC(C)c2ccc(C#N)cc2)cs1` (centres undefined): the cytotoxicity at 70.5 h was -7.27%. As for `CCN1CCC(NC(=O)CN2CCCCC2Cn2cccn2)CC1` (centres undefined), the cytotoxicity at 70.5 h was -4.33%. On to `Cc1ccc(Cl)cc1NC(=O)Nc1c[nH]c(=O)[nH]c1=O`, for which the cytotoxicity at 70.5 h is 0.569%. As to `CC(C)c1nsc(N2CCSCC2)n1`, the cytotoxicity at 70.5 h is -22.2%. In the case of `Cc1ccc(C(=O)N2Cc3c(CN4CCCCC4)nn(C)c3C2)cc1C`, the cytotoxicity at 70.5 h was -16.2%.

Turning to `CN1CCOC(C)(C(=O)Nc2nc(C(C)(C)C)cs2)C1` (centres undefined), the cytotoxicity at 70.5 h worked out at 13.5%. The same measure for `CCNC(=O)NCc1ccc(-n2ccc(C(F)(F)F)n2)cc1`: -3.86%.

Turning to `Cc1cn2c(n1)CCC(NC(=O)c1csc(C(C)C)n1)C2` (centres undefined), the cytotoxicity at 70.5 h is -0.273%.

Turning to `c1cncc(COCC2C[C@@H]3OCCN(Cc4cccnc4)[C@H]3C2)c1` (some centres undefined), the cytotoxicity at 70.5 h was -2.24%. The same measure for `CC(C(=O)NCc1ccnc(N2CCCCCC2)c1)n1cccn1` (centres undefined): 17.8%; for `Cc1ccc(NC(=O)N2C[C@H]3CC[C@@H]2CN(Cc2cscn2)C3)cc1`: -6.47%. For `COc1cccc(C(=O)N(C)C(C)c2c(C)n[nH]c2C)c1OC` (centres undefined), the cytotoxicity at 70.5 h is -5.83%. Turning to `CN(C)C(C(=O)N1CCC(N2CCSCC2)CC1)c1ccccc1F` (centres undefined), the cytotoxicity at 70.5 h was -3.23%. In the case of `CC(C)n1ccnc1C1CCN(C(=O)N2CCCC2)CC1`, the cytotoxicity at 70.5 h is -9.54%. `Cc1nnc(CN(Cc2cccc3c2OCO3)CC2CCCO2)n1C` (centres undefined): the cytotoxicity at 70.5 h was -19.6%.

Take `Cn1ncc2c(=O)[nH]c(CN3CCCC3c3cccs3)nc21` (centres undefined): the cytotoxicity at 70.5 h was -10.3%. The same measure for `COc1cccc(N2CCN(C(=O)COc3c(C)occc3=O)CC2)c1`: 10%; for `CC(C)N1CCN(CCn2cnc3c(F)cccc3c2=O)CC1`: -2.82%; for `Cc1n[nH]c(C)c1CCCN(C)c1cc(N(C)C)ncn1`: 6.66%. As to `O=C(CN1CCCC1=O)N1CCC(O)(Cn2ccc3ccncc32)CC1`, the cytotoxicity at 70.5 h is -5.71%. Consider `COc1ccc(N2CCC(NCc3csc(C(C)C)n3)CC2)cc1`, for which the cytotoxicity at 70.5 h amounted to 4.75%.

Consider `CCCc1cc(NC2CCN(Cc3ccccn3)CC2)n2nccc2n1`, for which the cytotoxicity at 70.5 h was -4.87%. On to `Fc1ccc(N2CCCN(Cc3ccc(-c4cc[nH]n4)o3)CC2)cc1`, for which the cytotoxicity at 70.5 h was -0.367%. For `CSC(C)(C)CNC(=O)Nc1cccc(-c2nccn2C)c1`, the cytotoxicity at 70.5 h was -3.46%.

For the molecule `COCCN1CCN(Cc2cnc(C3(C)CCCCO3)nc2)CC1` (centres undefined), the cytotoxicity at 70.5 h came to 0.727%.

Consider `Cc1cc(C)cc(OCC(O)CN2CCN(c3nccs3)CC2)c1` (centres undefined), for which the cytotoxicity at 70.5 h was 8.55%. The same measure for `Cn1ccnc1CNC(=O)N(CCCO)C1CCCc2ccccc21` (centres undefined): 21.5%; for `CC(C)(C)CC(=O)NC[C@H]1OC[C@@H](NCc2ccccn2)[C@@H]1O`: -10.1%. Turning to `CCc1[nH]c2ccc(CNc3cncc(C(=O)N(C)C)n3)cc2c1C`, the cytotoxicity at 70.5 h is -0.482%. The same measure for `COc1cccc(CNCC2CCN(CC(C)O)CC2)c1OC` (centres undefined): -5.57%; for `Cc1ccc(CCNC(=O)NCc2cccc(OC(F)F)c2)cn1`: -8.89%; for `COc1cccc(NC(=O)Cn2cc(-c3ccccc3)ncc2=O)c1`: -8.81%. The same measure for `Cc1cc(CN2CCCC(NS(C)(=O)=O)C2)ccc1-n1cncn1` (centres undefined): 11.7%; for `Cc1nn(C)c(C)c1C1COCCN1C(=O)c1cc(F)ccc1F` (centres undefined): -16.4%. The same measure for `O=C(c1ccc(F)cc1)N1CCN2C[C@H](OCc3cccnc3)C[C@H]2C1`: -11%; for `CC1CN(C)CCN1C(=O)NCCCn1ccnc1` (centres undefined): -1.11%. `c1nc2c(c(N3CCOCC3)n1)CCNCC2`: the cytotoxicity at 70.5 h was -4.52%. For the molecule `Cn1cccc1C(=O)N1CCC2(CC1)CN(c1cncnc1)C(=O)CO2`, the cytotoxicity at 70.5 h worked out at 8.12%. Consider `O=C1OCCN1CCSc1nnnn1C1CCOCC1`, for which the cytotoxicity at 70.5 h is -17.6%. As to `CCC(C)[C@H](N)c1nnc(SCC(=O)Nc2ccc(C)cc2C)o1` (some centres undefined), the cytotoxicity at 70.5 h is 0.595%. The same measure for `O=C(NCCCN1CCc2ccccc2C1)c1ccccc1Br`: -7.72%. Consider `O=C(N[C@@H]1CN[C@H]2CCCO[C@H]21)c1cccnc1`, for which the cytotoxicity at 70.5 h amounted to 1.62%. On to `O=C(C1CCCC1)N1CC2(CCCN(C3COC3)C2)Cc2ccccc21` (centres undefined), for which the cytotoxicity at 70.5 h is -15.4%. For `COCCC(=O)N1CCC2(COCc3cnc(N4CCOCC4)nc32)C1` (centres undefined), the cytotoxicity at 70.5 h was -15.1%. In the case of `Cc1cnn(C2CCCN(C(=O)c3ccn(C)c(=O)c3)C2)c1` (centres undefined), the cytotoxicity at 70.5 h is -11.3%.

As to `CCNC(=O)C(C)NC(=O)c1cnc(-c2ccc(C)cc2C)s1` (centres undefined), the cytotoxicity at 70.5 h came to 1.57%. As to `COCCN1CCC(CN(Cc2ccncc2)C2CCC2)CC1`, the cytotoxicity at 70.5 h is -6.79%.

Consider `Cc1ccc(CNCc2c(C)nn(C)c2N(C)C)cn1`, for which the cytotoxicity at 70.5 h was -3.06%. Turning to `Cc1ccc(-c2nc(C3CCN(C(=O)c4ccnn4C)CC3)no2)cn1`, the cytotoxicity at 70.5 h is -7.4%.

As for `CCS(=O)(=O)N1CCC(OCCCc2ccccc2)C1` (centres undefined), the cytotoxicity at 70.5 h was -3.57%.

For `CC(NC(=O)NCCNc1cnccn1)c1cccs1` (centres undefined), the cytotoxicity at 70.5 h was -6.24%.

Consider `Cc1cc2c(=O)n3c(nc2s1)CCN(Cc1cncn1C)CC3`, for which the cytotoxicity at 70.5 h was -7.45%. As for `CC(NC1CCN(CCc2ccncc2)CC1)c1cnn(C(C)C)c1` (centres undefined), the cytotoxicity at 70.5 h was -18%. The same measure for `O=C(Nc1ccccc1N1CCOC1=O)N1CCc2sccc2C1`: -8.21%; for `CCC(c1nc(C(C)C)nn1-c1ccccn1)n1cccn1` (centres undefined): 17.2%. On to `CN1CC2(CCN(Cc3cccnc3)CC2)c2cc(F)ccc21`, for which the cytotoxicity at 70.5 h is -3.7%. The same measure for `Nc1ccnc(N2C[C@H](O)[C@@H](N3CCN(c4ccccn4)CC3)C2)n1`: -17.6%; for `N#Cc1cccc(S(=O)(=O)NC2CCN(Cc3ccccc3)C2=O)c1` (centres undefined): -2.45%.
